Results published in US20050032873A1, “3-Amino chroman and 2-amino tetralin derivatives” (Wyeth, priority 2003, published 2005).
Where two headings read alike, the source gives them in different places.

Columns and labels:
[1] = target: T1, cloned human 5-HT1A receptors (Homo sapiens, UniProt P08908); assay: 35S-GTPγS binding assay, 5-HT1A function; type: biochemical; conditions: for EC50: agonist potency; for IC50: antagonist potency, reversal of 8-OH-DPAT, read-out: 5-HT1A Function GTPγS IC50
T1 construct: expressed in transfected cells
T1 sequence (P08908 1-422): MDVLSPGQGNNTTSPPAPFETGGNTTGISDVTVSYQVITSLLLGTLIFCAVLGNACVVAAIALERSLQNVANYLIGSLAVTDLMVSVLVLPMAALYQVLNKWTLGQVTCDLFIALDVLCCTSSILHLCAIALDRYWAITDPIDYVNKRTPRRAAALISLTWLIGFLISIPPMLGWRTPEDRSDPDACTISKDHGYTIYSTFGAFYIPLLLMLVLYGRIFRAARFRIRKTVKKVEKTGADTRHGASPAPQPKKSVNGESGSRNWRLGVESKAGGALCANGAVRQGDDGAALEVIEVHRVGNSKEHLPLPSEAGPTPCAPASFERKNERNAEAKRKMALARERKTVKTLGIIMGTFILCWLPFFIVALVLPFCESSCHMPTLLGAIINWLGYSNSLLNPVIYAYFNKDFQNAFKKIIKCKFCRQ

5-HT1A receptor [2] = target: T2, 5-HT1A receptor (Homo sapiens, UniProt P08908); assay: 5-HT1A receptor affinity: displacement of [3H] 8-OH-DPAT; type: binding; design: expressed in transfected cells; conditions: displacement of [3H] 8-OH-DPAT; CHO cells stably transfected with human 5-HT1A receptors; read-out: 5-HT1A Receptor Affinity Ki
T2 sequence (P08908 1-422): T1 sequence (P08908 1-422)

serotonin transporter = target: T3, serotonin transporter (Rattus norvegicus, UniProt P31652); assay: 5-HT transporter affinity: displacement of 3H-paroxetine from male rat cortical membranes; type: binding; conditions: displacement of 3H-paroxetine; male rat cortical membranes; read-out: 5-HT Transporter Affinity Ki
T3 construct: displace ^3H-paroxetine from male rat cortical membranes; from tissue; host or cells: male rat cortical membranes

5-HT1A receptor [3] = target: T2, 5-HT1A receptor; assay: cAMP accumulation assay, 5-HT1A function; type: cell-based; conditions: for EC50: cells marked EC50 (agonist); for Emax: in brackets after EC50 or IC50, read-out: 5-HT1A Function cAMP (Emax); for IC50: cells marked IC50 (antagonist), read-out: 5-HT1A Function cAMP IC50
[4] = maximum stimulatory effect, in brackets after EC50, read-out: 5-HT1A Function GTPγS (Emax)
[5] = maximum inhibitory effect, in brackets after IC50, read-out: 5-HT1A Function GTPγS (Imax)

T3 sequence (P31652 whole entry): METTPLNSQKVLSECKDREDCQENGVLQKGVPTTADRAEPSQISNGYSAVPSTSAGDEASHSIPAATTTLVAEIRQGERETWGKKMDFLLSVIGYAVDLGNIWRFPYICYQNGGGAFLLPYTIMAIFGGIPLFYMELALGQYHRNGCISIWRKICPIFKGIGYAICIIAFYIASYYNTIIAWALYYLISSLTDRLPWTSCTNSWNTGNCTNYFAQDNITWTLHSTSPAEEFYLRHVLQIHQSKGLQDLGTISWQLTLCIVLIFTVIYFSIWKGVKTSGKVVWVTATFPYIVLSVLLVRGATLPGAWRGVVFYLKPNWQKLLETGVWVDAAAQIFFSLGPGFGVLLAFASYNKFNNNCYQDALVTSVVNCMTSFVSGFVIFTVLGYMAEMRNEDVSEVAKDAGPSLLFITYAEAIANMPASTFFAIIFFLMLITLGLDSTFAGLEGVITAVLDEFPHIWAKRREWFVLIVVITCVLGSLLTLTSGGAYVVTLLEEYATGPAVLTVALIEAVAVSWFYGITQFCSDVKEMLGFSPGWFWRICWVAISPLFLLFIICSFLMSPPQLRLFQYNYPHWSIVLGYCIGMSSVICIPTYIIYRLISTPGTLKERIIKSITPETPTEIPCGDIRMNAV

EC50 [1] [nM]	Emax [1, 4] [%]	EC50 (5-HT1A receptor [3]) [nM]	SMILES	Ki (5-HT1A receptor [2]) [nM]	Ki (serotonin transporter) [nM]	Emax (5-HT1A receptor [3]) [%]	IC50 [1] [nM]	Emax [1, 5] [%]	IC50 (5-HT1A receptor [3]) [nM]
			NC(=O)c1ccc(Cl)c2c1CC(N(CCCc1c[nH]c3ccc(F)cc13)C1CCC1)CO2 (centres unmarked) [Compound 7, 8-chloro-3-{cyclobutyl[3-(5-fluoro-1H-indol-3-yl)propyl]amino}chromane-5-carboxamide]	6.21	3.2	0	1650	100	59.7
			NC(=O)c1ccc(F)c2c1CC(N(CCC(=O)c1c[nH]c3ccc(F)cc13)C1CCC1)CO2 (centres unmarked) [Compound 8, 3-{cyclobutyl[3-(5-fluoro-1H-indol-3-yl)-3-oxopropyl]amino}-8-fluorochromane-5-carboxamide]	103	259	0	1380	100	478
30.5	85	16.3	COC(=O)c1ccc(F)c2c1CC(NCCCc1c[nH]c3ccc(F)cc13)CO2 (centres unmarked) [Compound 10, Methyl 8-fluoro-3-{[3-(5-fluoro-1H-indol-3-yl)propyl]amino}chromane-5-carboxylate]	6.25	10.9	70.5			
			COC(=O)c1ccc(F)c2c1CC(N(CCCc1c[nH]c3ccc(F)cc13)C1CCC1)CO2 (centres unmarked) [Compound 11, Methyl 3-{cyclobutyl[3-(5-fluoro-1H-indol-3-yl)propyl]amino}-8-fluorochromane-5-carboxylate]	73.8	161	0	345	62	403
93.3	42	76.2	CCCN(CCC(O)c1csc2ccc(F)cc12)C1COc2c(F)ccc(C(N)=O)c2C1 (centres unmarked) [Compound 17, 8-fluoro-3-[[3-(5-fluoro-1-benzothien-3-yl)-3-hydroxypropyl](propyl)amino]chromane-5-carboxamide]	0.88	159	74.5			
232	100	11	CCN(CCCc1csc2ccccc12)C1COc2cccc(OC)c2C1 (centres unmarked) [Compound 18, N-[3-(1-benzothien-3-yl)propyl]-N-ethyl-5-methoxychroman-3-amine]	3.72	127	93.5			
317	100	81	CCCN(CCCc1csc2ccc(F)cc12)C1COc2cccc(OC)c2C1 (centres unmarked) [Compound 19, N-[3-(5-fluoro-1-benzothien-3-yl)propyl]-5-methoxy-N-propylchroman-3-amine]	16	405	86.5			
35.7	84	62.2	CCCN(CCCc1coc2ccccc12)C1COc2c(F)ccc(C(N)=O)c2C1 (centres unmarked) [Compound 20, 3-[[3-(1-benzofuran-3-yl)propyl](propyl)amino]-8-fluorochromane-5-carboxamide]	0.37	575	88			
28.1	98.5	9.51	CCN(CCCc1coc2ccccc12)C1COc2cccc(OC)c2C1 (centres unmarked) [Compound 21, N-[3-(1-benzofuran-3-yl)propyl]-N-ethyl-5-methoxychroman-3-amine]	0.38	311	90.5			
224	82	31	CCN(CCCCc1coc2ccccc12)C1COc2cccc(OC)c2C1 (centres unmarked) [Compound 22, N-[4-(1-benzofuran-3-yl)butyl]-N-ethyl-N-(5-methoxy-3,4-dihydro-2H-chromen-3-yl)amine]	4.77	35.7	100	1180	31	
94.6	83	27.7	CCCN(CCCCc1c[nH]c2ccc(F)cc12)C1COc2cccc(OC)c2C1 (centres unmarked) [Compound 30, N-[4-(5-fluoro-1H-indol-3-yl)butyl]-5-methoxy-N-propylchroman-3-amine]	3.62	12.6	94			
123	100	85.4	CCN(CCCCc1c[nH]c2ccc(F)cc12)C1COc2cccc(OC)c2C1 (centres unmarked) [Compound 32, N-ethyl-N-[4-(5-fluoro-1H-indol-3-yl)butyl]-5-methoxychroman-3-amine]	2.78	1.1	95			

SMILES	EC50 [1] [nM]	Emax [1, 4] [%]	EC50 (5-HT1A receptor [3]) [nM]	Ki (5-HT1A receptor [2]) [nM]	Ki (serotonin transporter) [nM]	Emax (5-HT1A receptor [3]) [%]	IC50 [1] [nM]	Emax [1, 5] [%]	IC50 (5-HT1A receptor [3]) [nM]
CCCN(CCCc1c[nH]c2ccc(F)cc12)C1COc2c(F)ccc(C(N)=O)c2C1 (centres unmarked) [Compound 2, 8-fluoro-3-{[3-(5-fluoro-1H-indol-3-yl)propyl](propyl)amino}chromane-5-carboxamide]	168	77	10.4	2.94	6	83.5			
CCCN(CCCc1c[nH]c2ccc(F)cc12)C1COc2cccc(OC)c2C1 (centres unmarked) [Compound 23, [3-(5-fluoro-1H-indol-3-yl)propyl]-N-(5-methoxy-chroman-3-yl)propylamine]	99.5	100	39.3	15.9	9	80.5			
CCCN(CCCc1c[nH]c2ccc(F)cc12)[C@@H]1COc2c(F)ccc(OC)c2C1 [Compound 27, (3S)-8-fluoro-N-[3-(5-fluoro-1H-indol-3-yl)propyl]-5-methoxy-N-propylchroman-3-amine]	116	97	16.4	12.6	13.5	88.5			
CCCN(CCCc1c[nH]c2ccc(F)cc12)[C@H]1COc2c(F)ccc(OC)c2C1 [Compound 28, (3R)-8-fluoro-N-[3-(5-fluoro-1H-indol-3-yl)propyl]-5-methoxy-N-propylchroman-3-amine]	166	88	36.5	11	17.5	86			
CCCN(CCc1c[nH]c2ccc(F)cc12)C1COc2cccc(OC)c2C1 (centres unmarked) [Compound 29, N-[2-(5-fluoro-1H-indol-3-yl)ethyl]-5-methoxy-N-propylchroman-3-amine]	205	70	77.1	7.32	27	99			
CCN(CCCc1c[nH]c2ccc(F)cc12)C1COc2cccc(OC)c2C1 (centres unmarked) [Compound 31, N-ethyl-N-[3-(5-fluoro-1H-indol-3-yl)propyl]-5-methoxychroman-3-amine]	53.5	99	26.3	2.33	2.2	96			
COc1cccc2c1CC(N(C)CCCc1c[nH]c3ccc(F)cc13)CO2 (centres unmarked) [Compound 33, N-[3-(5-fluoro-1H-indol-3-yl)propyl]-5-methoxy-N-methylchroman-3-amine]	3.62	69	95.2	40	6.8	91			
COc1cccc2c1CC(N(CCCc1c[nH]c3ccc(F)cc13)C1CCC1)CO2 (centres unmarked) [Compound 34, N-cyclobutyl-N-[3-(5-fluoro-1H-indol-3-yl)propyl]-5-methoxychroman-3-amine]			61.9	15.6	13	37	2130	76	
